Data: patent US6835755B1, “Naphthoquinone derivatives and their use in the treatment and control of tuberculosis” (priority 1999, dated 2004)
Converted amounts (≈) assume the structure as drawn.

Test system: Mycobacterium tuberculosis sensitive strain (H37Rv)
Assay: microbe, parasite or virus in culture
Format: cell-based
Settings: for ΔGI values of plant extracts: at MIC, mean ± s.d.

Row | Compound | ΔGI values of plant extracts (H37 sensitive strain) | MIC (Mycobacterium tuberculosis, H37RV, H37 sensitive strain, radiometric method) [µg/mL] | ΔGI values of plant extracts (H37Rv sensitive strain ATCC27294) | MIC (Minimal inhibitory concentration) (H37Rv sensitive strain ATCC27294, radiometric method) [µg/mL]
1 | Cc1cc(O)c2c(c1)C(=O)C(c1c(C)cc3c(c1O)C(=O)C=CC3=O)=CC2=O [diospyrin, 5,5′ dihydroxy 7,7′ binaphthoquinone] | −1 ± 1.41 | 100 (≈ 267 µM) |  | 
2 | Cc1cc(O)c2c(c1)C(=O)C=CC2=O [7-methyljuglone, 5-hydroxy-7-methyl-1,4-naphtoquinone] |  |  | 0 ± 1 | 50 (≈ 266 µM)
